{"source": "patent US9783545B2", "about": "“Pyrazolopyridazines and methods for treating retinal-degenerative diseases and hearing loss associated with usher syndrome” (Usher III Initiative, Inc., priority 2012, dated 2017)", "key": {"N48K Clarin-1 [1]": {"target": "T1, N48K Clarin-1 (Homo sapiens, UniProt P58418, N48K)", "T1 construct": "expressed in transfected cells", "T1 sequence (P58418 1-232 N48K)": "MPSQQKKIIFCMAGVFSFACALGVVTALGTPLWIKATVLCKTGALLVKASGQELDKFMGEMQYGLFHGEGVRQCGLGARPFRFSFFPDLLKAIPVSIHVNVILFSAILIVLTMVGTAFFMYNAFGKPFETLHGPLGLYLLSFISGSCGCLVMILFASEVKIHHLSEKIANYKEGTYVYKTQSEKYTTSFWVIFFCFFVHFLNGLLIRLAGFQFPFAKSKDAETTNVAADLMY", "experiment": "Restoration of expression of N48K Clarin-1, 24 hour incubation (high content imaging of HA-tagged N48K Clarin-1)", "format": "cell-based", "settings": "HEK293-Clarin-1 N48K-HA D9 cell line, 24 hr incubation with compound; read-out: IC50 (the source's name)"}, "N48K Clarin-1 [2]": {"target": "T1, N48K Clarin-1", "experiment": "Restoration of expression of N48K Clarin-1, 2 hour incubation then 22 hr fresh medium (high content imaging of HA-tagged N48K Clarin-1)", "format": "cell-based", "settings": "HEK293-Clarin-1 N48K-HA D9 cell line, 2 hr incubation with compound, then 22 hr in fresh medium", "experimental": "An Assay Method Showing Activity of Compounds of the Invention that Restore Expression of N48K Clarin-1(2 hour incubation)\nClarin-1 is the protein encoded by the gene mutated in Usher III Syndrome (Adato et al., 2002). The most prevalent mutation in Clarin-1 in North America is N48K, which is reported to cause loss of glycosylation and a trafficking defect (Tian et al., 2009). […] Thus it is believed that restoring the trafficking of N48K Clarin-1 to the cell surface provides an avenue of intervention for Usher III Sydrome.\nIn a typical experiment, these cells were seeded on collagen-coated 96-well plates at a cell density of 20,000 cells per well in Dulbecco's Modified Eagle Medium (DMEM) contain 10% fetal bovine serum in a humidified incubator at 37° C., 5% CO2. After an overnight incubation, compounds were added for a 2 hr incubation in DMEM medium contain 10% fetal bovine serum in a humidified incubator at 37° C., 5% CO2. As a negative control, DMSO was used at 0.25% final concentrations. Compounds were typically tested in triplicate fashion. After the 2 hr incubation with compounds, the cells were incubated in fresh medium for 22 hr. The cells were then fixed by the addition of 10% buffered formalin to the wells to achieve a final concentration of 4% formalin. After a 20 min fixation at room temperature, wells were washed three times with phosphate-buffered saline (PBS) containing Triton X-100 (0.02 phosphate, 150 mM NaCl, 0.1% Triton X-100).\nThe HA-tagged N48K Clarin-1 was detected with an antibody against the HA tag (HA.11 Clone 16B12 Monoclonal antibody, Covance #MMS-101P) at a dilution of 1:1000 in PBS containing Triton X-100. After a 90 min incubation, wells were washed three times with PBS containing Triton X-100, and a secondary antibody (Goat anti-mouse IgG-Cy3 (1.5 mg/ml), Jackson IR Europe #115165003) was added to the wells at a dilution of 1:250 in PBS containing Triton X-100 for 45 min. Wells were subsequently washed three times with PBS containing Triton X-100, and a final staining for nuclei was performed by the addition of DAPI (4′,6-diamidino-2-phenylindole) at a dilution of 1:10,000. The imaging of the stained cells was performed on an InCell 1000 High Content Imager (GE Healthcare), reading out the Cy3 channel for N48K Clarin-1 and the DAPI channel for nuclei. The images are analyzed and quantitated using a specific algorithm. This algorithm measured the HA-Clarin-1 staining for each cell based on the additional nuclear segmentation of the DAPI signal (FIG. 1). This algorithm measured the intensity per cell, and thus it is less sensitive for variation in cell number. Per well, approximately 2,000 cells were measured to achieve an average density per cell measurement."}}, "data": [{"compound": "CN1CCN(CCn2nc(-c3ccc4c(c3)CCO4)c3c(Cl)c(-c4ccccc4)nnc32)CC1", "note": "[Il, 4-chloro-3-(2,3-dihydrobenzofuran-5-yl)-1-(2-(4-methylpiperazin-1-yl)ethyl)-5-phenyl-1H-pyrazolo[3,4-c]pyridazine]", "values": [{"measurement": "EC50", "setting": "N48K Clarin-1 [1]", "result": "≤ 2", "unit": "µM"}, {"measurement": "IC50", "setting": "N48K Clarin-1 [2]", "result": "≤ 4", "unit": "µM"}]}, {"compound": "CS(=O)(=O)CCn1nc(-c2ccccc2)c2c(Cl)c(-c3ccccc3)nnc21", "note": "[IIq, 4-chloro-1-(2-methylsulfonylethyl)-3,5-diphenyl-pyrazolo[3,4-c]pyridazine]", "values": [{"measurement": "EC50", "setting": "N48K Clarin-1 [1]", "result": "≤ 2", "unit": "µM"}, {"measurement": "IC50", "setting": "N48K Clarin-1 [2]", "result": "≤ 4", "unit": "µM"}]}, {"compound": "Clc1c(-c2ccccc2)nnc2c1c(-c1ccccc1)nn2C[C@H]1CCCO1", "note": "[IIj, 4-chloro-3,5-diphenyl-1-[[(2R)-tetrahydrofuran-2-yl]methyl]pyrazolo[3,4-c]pyridazine]", "values": [{"measurement": "EC50", "setting": "N48K Clarin-1 [1]", "result": "≤ 2", "unit": "µM"}, {"measurement": "IC50", "setting": "N48K Clarin-1 [2]", "result": "≤ 4", "unit": "µM"}]}, {"compound": "CN1CCN(CCn2nc(-c3cccn3C)c3c(Cl)c(-c4ccccc4)nnc32)CC1", "note": "[Ik, 4-chloro-3-(1-methyl-1H-pyrrol-2-yl)-1-(2-(4-methylpiperazin-1-yl)ethyl)-5-phenyl-1H-pyrazolo[3,4-c]pyridazine]", "values": [{"measurement": "EC50", "setting": "N48K Clarin-1 [1]", "result": "≤ 2", "unit": "µM"}, {"measurement": "IC50", "setting": "N48K Clarin-1 [2]", "result": "≤ 4", "unit": "µM"}]}, {"compound": "Cn1cncc1Cn1nc(-c2ccccc2)c2c(Cl)c(-c3ccccc3)nnc21", "note": "[IIa, 4-chloro-1-[(3-methylimidazol-4-yl)methyl]-3,5-diphenyl-pyrazolo[3,4-c]pyridazine]", "values": [{"measurement": "EC50", "setting": "N48K Clarin-1 [1]", "result": "≤ 2", "unit": "µM"}, {"measurement": "IC50", "setting": "N48K Clarin-1 [2]", "result": "4 to 8", "unit": "µM"}]}, {"compound": "CC1(Cn2nc(-c3ccccc3)c3c(Cl)c(-c4ccccc4)nnc32)COC1", "note": "[IIf, 4-chloro-1-[(3-methyloxetan-3-yl)methyl]-3,5-diphenyl-pyrazolo[3,4-c]pyridazine]", "values": [{"measurement": "EC50", "setting": "N48K Clarin-1 [1]", "result": "≤ 2", "unit": "µM"}, {"measurement": "IC50", "setting": "N48K Clarin-1 [2]", "result": "≤ 4", "unit": "µM"}]}, {"compound": "Cn1cc(Cn2nc(-c3ccccc3)c3c(Cl)c(-c4ccccc4)nnc32)cn1", "note": "[IIg, 4-chloro-1-[(1-methylpyrazol-4-yl)methyl]-3,5-diphenyl-pyrazolo[3,4-c]pyridazine]", "values": [{"measurement": "EC50", "setting": "N48K Clarin-1 [1]", "result": "≤ 2", "unit": "µM"}, {"measurement": "IC50", "setting": "N48K Clarin-1 [2]", "result": "≤ 4", "unit": "µM"}]}]}
